Results reported in patent publication US20100227313A1, “Methods and Compositions for Determining Altered Susceptibility of HIV-1 to Protease Inhibitor Treatment” (priority 2007, published 2010).

Legend:
[1] = test system: HIV-1; assay: Resistance test vector (PHENOSENSE) phenotypic susceptibility assay, fold change in IC50, correlated with genotype (Fisher's Exact test, odds ratio); assay type: cell-based, human immunodeficiency virus type 1; conditions: 2862 clinical samples; FC relative to wild-type (NL4-3); FIG. 1
Excerpt: See Petropoulos et al., 2000, Antimicrob. Agents Chemother. 44:920-928; U.S. Pat. Nos. 5,837,464 and 6,242,187. PHENOSENSE™ is a phenotypic assay that achieves the benefits of phenotypic testing and overcomes the drawbacks of previous assays.
PHENOSENSE™ can obtain results with only one round of viral replication, thereby avoiding selection of subpopulations of virus that can occur during preparation of viral stocks required for assays that rely on fully infectious virus.
A resistance test vector (“RTV”) can then be constructed by incorporating the amplified viral gene sequences into a replication defective viral vector by using any method known in the art of incorporating gene sequences into a vector. In one embodiment, restrictions enzymes and conventional cloning methods are used. See Sambrook et al., 2001, Molecular Cloning: A Laboratory Manual, Cold Spring Harbor Laboratory, 3rd ed., NY; and Ausubel et al., 1989, Current Protocols in Molecular Biology, Greene Publishing Associates and Wiley Interscience, NY. In a preferred embodiment, ApaI and PinAI restriction enzymes are used. Preferably, the replication defective viral vector is the indicator gene viral vector (“IGVV”). In a preferred embodiment, the viral vector contains a means for detecting replication of the RTV. Preferably, the viral vector contains a luciferase expression cassette.
The assay can be performed by first co-transfecting host cells with RTV DNA and a plasmid that expresses the envelope proteins of another retrovirus, for example, amphotropic murine leukemia virus (MLV). Following transfection, viral particles can be harvested from the cell culture and used to infect fresh target cells in the presence of varying amounts of anti-viral drug(s). The completion of a single round of viral replication in the fresh target cells can be detected by the means for detecting replication contained in the vector. In a preferred embodiment, the completion of a single round of viral replication results in the production of luciferase. By monitoring the amount of, e.g., luciferase activity in the presence of the varying amounts of antiviral drug(s), a resistance curve can be constructed by plotting luciferase activity versus drug concentration. The susceptibility of an HIV, or population of HIV, can be determined by measuring the concentration of antiviral drug at which the luciferase activity detected is half-maximal. This number, the IC50, provides a standard and convenient measure of drug resistance.
Patient derived segment(s) corresponding to the HIV protease and reverse transcriptase coding regions were amplified by the reverse transcription polymerase chain reaction method (RT PCR) using viral RNA isolated from viral particles present in the plasma or serum of HIV infected individuals as follows. Viral RNA was isolated from the plasma or serum using oligo-dT magnetic beads (Dynal Biotech, Oslo, Norway), followed by washing and elution of viral RNA. The RT PCR protocol was divided into two steps. A retroviral reverse transcriptase (e.g. Moloney MuLV reverse transcriptase (Roche Molecular Systems, Inc., Branchburg, N.J.; Invitrogen, Carlsbad, Calif.), or avian myeloblastosis virus (AMV) reverse transcriptase, (Boehringer Mannheim, Indianapolis, Ind.) was used to copy viral RNA into cDNA. The cDNA was then amplified using a thermostable DNA polymerase (e.g. Taq (Roche Molecular Systems, Inc., Branchburg, N.J.), Tth (Roche Molecular Systems, Inc., Branchburg, N.J.), PRIMEZYME™ (isolated from Thermus brockianus, Biometra, Gottingen, Germany)) or a combination of thermostable polymerases as described for the performance of “long PCR” (Barnes, W.M., 1994, Proc. Natl. Acad. Sci, USA 91, 2216 20) (e.g. Expand High Fidelity PCR System (Taq+Pwo), (Boehringer Mannheim. Indianapolis, Ind.); GENEAMP XL™ PCR kit (Tth+Vent), (Roche Molecular Systems, Inc., Branchburg, N.J.); or […] II®, Clontech, Palo Alto, Calif.)

[2] = test system: HIV protease; conditions: 2006, cited from earlier work; for effect of I47A mutation on susceptibility: de Mendoza et al.; for effect of L33F mutation in protease on susceptibility: Kozal et al.

Row | Structure (SMILES) | correlation of FC in susceptibility with the FC in susceptibility for DRV [1] | effect of I47A mutation on susceptibility [2] | effect of L33F mutation in protease on susceptibility [2]
1 | COC(=O)N[C@H](C(=O)N[C@@H](Cc1ccccc1)[C@@H](O)CN(Cc1ccc(-c2ccccn2)cc1)NC(=O)[C@@H](NC(=O)OC)C(C)(C)C)C(C)(C)C [ATV, atazanavir] | no correlation |  | 
2 | Cc1cccc(C)c1OCC(=O)N[C@@H](Cc1ccccc1)[C@@H](O)C[C@H](Cc1ccccc1)NC(=O)[C@H](C(C)C)N1CCCNC1=O [LPV, lopinavir] | no correlation | reduced susceptibility | correlate with resistance
3 | CC(C)c1nc(CN(C)C(=O)N[C@H](C(=O)N[C@@H](Cc2ccccc2)C[C@H](O)[C@H](Cc2ccccc2)NC(=O)OCc2cncs2)C(C)C)cs1 [ritonavir] |  |  | correlate with resistance
4 | CC(C)(C)NC(=O)[C@@H]1C[C@@H]2CCCC[C@@H]2CN1C[C@@H](O)[C@H](Cc1ccccc1)NC(=O)[C@H](CC(N)=O)NC(=O)c1ccc2ccccc2n1 [saquinavir] |  | hypersusceptibility | correlate with resistance
